Earlier results as cited in patent US20130323309A1, “Sustained Release Composition of Memantine” (LUPIN LIMITED, priority 2011, published 2013).

Details: aqueous media and polar solvents; memantine or a pharmaceutically acceptable salt

Solubility: highly soluble
Compound: CC12CC3CC(C)(C1)CC(N)(C3)C2 [Memantine, 1-amino-3,5-dimethyladamantane]
